In the supplement of paper PMC10307832:

Columns and labels:
Assay in all cases: relative viability (nuclei count vs DMSO), 5 days (fraction); higher = more cells survive
EHT 1864 + Linsitinib = compound: C1COCCN1CC2=CC(=O)C(=CO2)OCCCCCSC3=C4C=CC(=CC4=NC=C3)C(F)(F)F [EHT 1864] + C[C@]1(O)C[C@@H](c2nc(-c3ccc4ccc(-c5ccccc5)nc4c3)c3c(N)nccn32)C1 [Linsitinib] (partner 1 µM)
Outline: (§1)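 Relative viability is defined as nuclei in treated wells over nuclei in vehicle wells. Duplicate plates were run and medians reported. Lung cancer cell lines in 1536-well plates were dosed by pin tool one day after seeding, with one drug or with a fixed anchor-drug dose plus five library-drug doses (not always all listed) in √10 steps, and nuclei were counted after 5 days.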

EHT 1864 + Navitoclax = compound: C1COCCN1CC2=CC(=O)C(=CO2)OCCCCCSC3=C4C=CC(=CC4=NC=C3)C(F)(F)F [EHT 1864] + CC1(C)CCC(c2ccc(Cl)cc2)=C(CN2CCN(c3ccc(C(=O)NS(=O)(=O)c4ccc(N[C@H](CCN5CCOCC5)CSc5ccccc5)c(S(=O)(=O)C(F)(F)F)c4)cc3)CC2)C1 [Navitoclax] (partner 0.5 µM)
Outline: as §1

EHT 1864 + Vorinostat = compound: C1COCCN1CC2=CC(=O)C(=CO2)OCCCCCSC3=C4C=CC(=CC4=NC=C3)C(F)(F)F [EHT 1864] + O=C(CCCCCCC(=O)Nc1ccccc1)NO [Vorinostat] (partner 1 µM)
Outline: as §1

EHT 1864 + Pemetrexed = compound: C1COCCN1CC2=CC(=O)C(=CO2)OCCCCCSC3=C4C=CC(=CC4=NC=C3)C(F)(F)F [EHT 1864] + Nc1nc2[nH]cc(CCc3ccc(C(=O)N[C@@H](CCC(=O)O)C(=O)O)cc3)c2c(=O)[nH]1 [Pemetrexed] (partner 0.2 µM)
Outline: as §1

| Cell Line | relative viability (EHT 1864 + Linsitinib; first compound 0.04 µM) | relative viability (EHT 1864 + Linsitinib; first compound 0.1265 µM) | relative viability (EHT 1864 + Linsitinib; first compound 0.4 µM) | relative viability (EHT 1864 + Linsitinib; first compound 1.265 µM) | relative viability (EHT 1864 + Linsitinib; first compound 4 µM) | relative viability (EHT 1864 + Navitoclax; first compound 0.04 µM) | relative viability (EHT 1864 + Navitoclax; first compound 0.1265 µM) | relative viability (EHT 1864 + Navitoclax; first compound 0.4 µM) | relative viability (EHT 1864 + Navitoclax; first compound 1.265 µM) | relative viability (EHT 1864 + Navitoclax; first compound 4 µM) | relative viability (EHT 1864 + Vorinostat; first compound 0.04 µM) | relative viability (EHT 1864 + Vorinostat; first compound 0.1265 µM) | relative viability (EHT 1864 + Vorinostat; first compound 0.4 µM) | relative viability (EHT 1864 + Vorinostat; first compound 1.265 µM) | relative viability (EHT 1864 + Vorinostat; first compound 4 µM) | relative viability (EHT 1864 + Pemetrexed; first compound 0.04 µM) | relative viability (EHT 1864 + Pemetrexed; first compound 0.1265 µM) | relative viability (EHT 1864 + Pemetrexed; first compound 0.4 µM) | relative viability (EHT 1864 + Pemetrexed; first compound 1.265 µM) | relative viability (EHT 1864 + Pemetrexed; first compound 4 µM) |
| --- | --- | --- | --- | --- | --- | --- | --- | --- | --- | --- | --- | --- | --- | --- | --- | --- | --- | --- | --- | --- |
| PC-14 | 0.955 | 0.973 | 0.954 | 0.985 | 0.99 | 1.06 | 0.957 | 0.952 | 1.02 | 1.06 | 0.791 | 0.572 | 0.686 | 0.743 | 0.751 | 0.121 | 0.124 | 0.137 | 0.133 | 0.133 |
| RERF-LC-KJ | 0.874 | 0.884 | 0.861 | 0.861 | 0.847 | 0.985 | 0.829 | 0.823 | 0.931 | 0.888 | 0.676 | 0.585 | 0.69 | 0.735 | 0.718 | 0.46 | 0.443 | 0.484 | 0.462 | 0.504 |
| SK-LU-1 | 1.09 | 1 | 0.95 | 1.11 | 1.12 | 0.867 | 0.768 | 0.824 | 1.01 | 0.744 | 0.81 | 0.726 | 0.725 | 0.707 | 0.679 | 0.982 | 0.935 | 1.03 | 0.872 | 0.901 |
| SK-MES-1 | 1.06 | 1.06 | 1.17 | 1.16 | 1.09 | 1.3 | 1.13 | 1.29 | 1.31 | 1.17 | 1.1 | 0.983 | 1.1 | 1.1 | 1.03 | 0.93 | 0.852 | 0.857 | 0.882 | 0.85 |
| SW 1573 | 0.923 | 0.943 | 0.812 | 0.814 | 0.709 | 0.999 | 0.978 | 1.01 | 0.958 | 0.725 | 0.922 |  | 0.674 | 1.07 | 0.671 | 0.737 |  | 0.78 | 0.869 | 0.775 |
| UMC-11 | 1.02 | 0.978 | 0.986 | 0.962 | 0.963 | 0.345 | 0.294 | 0.27 | 0.304 | 0.322 | 0.372 | 0.482 | 0.41 | 0.398 | 0.534 | 0.763 | 0.706 | 0.843 | 0.764 | 0.888 |
